Assay results taken from patent US10865188B2, “Dibenzo azepine compounds and their use in the treatment of otic diseases and disorders” (Pipeline Therapeutics, Inc., priority 2015, dated 2020).
Like-named read-outs stand apart in the source and are kept apart here.

Legend:
Atoh1 = assay: Human neural stem cell assay, Atoh1 gene expression (real-time PCR); format: cell-based; conditions: human neural stem cells, 7 point CRC, read-out: hNSC Atoh1 EC50
Protocol: (§1) Neural stem cells (NSC) were derived from embryonic stem cells using a published protocol (Yuan et al., Mar. 2, 2011, PLoS ONE, 6(3):e17540). Cells were sorted and characterized at passage 3 and were expanded. Cells were then frozen at passage 5. Cells were maintained in NSC media (DMEM/F12, N2 (1×), B27(1×) (Invitrogen), and Pen/Strep (1×) (Life Technologies) with 20 ng/ml bFGF (BD Bioscience/Corning)). On day 1, cells were plated in 96 well plates that have been previously coated with poly-ornithin and laminin, 60,000 cells/well in 100 μl of media. On day 2, spent media was removed, and 180 μl of fresh media was added to the cells. Later that same day (day 2), cells were treated with 20 μl of NSC media containing test compounds (7 point CRC). On day 3, spent media was removed and 140 μl of RLT/bME was added to the cells. RNA was extracted using the QiaCube (Qiagen®, Germantown, Md., USA) using the total RNA extraction+DNAse protocol. RNA was then reverse-transcribed to cDNA using iScript (Bio-Rad, Hercules, Calif., USA). cDNA was then used for real-time PCR analysis using iTaq Sybergreen (BioRad). Expression of Atoh1, Hes5, Hes1, Myosin7a genes was evaluated using CFX96 or CFX384 (Bio-Rad). HPRT1 was used as a reference gene. Analysis was done using Microsoft® Excel® and CBIS (ChemInnovation Software, Inc., San Diego, Calif., USA). […]

mice = assay: Auditory brainstem response (ABR) hearing threshold; format: in vivo; conditions: formulations of Examples 3(c) and 3(d) (2% w/v crystalline, poloxamer 407)
Protocol: Surgery was performed on naïve mice or mice with noise or pharmacologically-damaged ears. The animals were anesthetized with isoflurane and an 8 mm retroauricular incision was made to the lower caudal edge of the pinna. The skin was retracted and the fatty tissue was blunt dissected away from where the facial nerve and muscle come together. The muscle was retracted to reveal an area in the tympanic bulla where the bone was thin. A 30 g needle was used to drill a hole in the exposed thin portion of the otic bulla. A Hamilton syringe equipped with a 32 g blunt needle was inserted into the opening of the otic bulla. The drug formulation was delivered by injection and the needle removed. Wound closure was made with tissue glue.
Naïve mice or mice at various times after either noise or pharmacological deafening were anesthetized with ketamine/xylazine/acepromazine and the auditory brainstem response was determined in both ears using a Tucker Davis (Alachua, Fla.) RZ6 apparatus. The mice were exposed to clicks or pure tones of 4, 8, 16, 24 and 32 kHz at 90-10 dB in 10 dB descending steps and the hearing threshold was determined.

[1] = Guinea pig PK after transtympanic delivery (perilymph and cochlea, LC/MS/MS); format: in vivo; conditions: for concentration at 1 day / concentration at 7 day / concentration at 14 day / concentration at 3 day / concentration at 21 day / concentration at 28 day: male, Hartley, other: transtympanic, 30 μL, 30 μL transtympanic; for concentration at 1 day: Day 1, LLOQ = 0.08 μM; for concentration at 7 day: Day 7, LLOQ = 0.08 μM; for concentration at 14 day: Day 14, LLOQ = 0.08 μM; for concentration at 3 day: Day 3, LLOQ = 0.08 μM; for concentration at 21 day: Day 21, LLOQ = 0.08 μM; for concentration at 28 day: Day 28, LLOQ = 0.08 μM
Source text: (§2) Male Hartley guinea pigs (300-350 g) were anesthetized with ketamine and xylazine. Thirty microliters of an aqueous pharmaceutical composition of the instant embodiments was delivered transtympanically to deposit the drug to the round window membrane. Delivery was unilateral. The animals were placed in a warm chamber in a lateral recumbent position keeping the dosed ear side up until they recover from anesthesia.
At various timepoints after administration, the animals were euthanized by CO2 inhalation. Blood and CSF were collected and stored at −80° C. The animals were decapitated, the temporal bones removed and the bulla opened to expose the otic capsule. Ipsilateral and contralateral perilymph were collected from the apex using a microcapillary tube. The ipsilateral cochlea was removed from the otic capsule and stored at −80° C. All tissues collected were analyzed using LC/MS/MS for test compound concentration as follows. Analytical standards were prepared by spiking known concentrations of the test compound stock solutions into matrices such as plasma or artificial CSF. Fixed amounts of tissues collected and spiked standards were precipitated with acetonitrile containing buspirone as an internal standard. The precipitated samples were centrifuged at 4000 g for 10 minutes at 4° C. The supernatants were analyzed using LC-MS/MS. The LC-MS/MS system was set up using the AB Sciex 4000 Qtrap (AB Sciex, Framingham, Mass.) equipped with Agilent 1200 series HPLC and CTC PAL Autosampler (Agilent Technologies, Santa Clara, Calif.).
Liquid compositions described herein were evaluated using the method described in Part E of the Biological Function section provided above. The liquid compositions prepared as described in Example 5(a)-5(d) were each drawn into a 1 mL syringe. Using the filled 1 mL syringe, the liquid composition was back-filled at 5° C. into a 100 μL Hamilton syringe adapted with 28 gauge needle. The Hamilton syringe was then allowed to warm to room temperature.
as §2, with “the above liquid” for “an aqueous pharmaceutical”, “were” for “of the instant embodiments was”, “The delivery” for “Delivery”, “recovered” for “recover”
At various timepoints after administration, the animals were euthanized by CO2 inhalation. Blood and cerebrospinal fluid were collected and stored at −80° C. The animals were decapitated, the temporal bones removed and the bulla were opened to expose the otic capsule. Ipsilateral and contralateral perilymph were collected from the apex using a microcapillary tube. The ipsilateral cochlea was removed from the otic capsule and was stored at −80° C. All tissues collected were analyzed using LC/MS/MS as described in Part E of the Biological Function section above.
The concentrations of Compound I and Compound II were measured using LC/MS/MS in both the perilymph fluid and the cochlea tissue after a transtympanic injection of an instant formulation of either the crystalline form or the amorphous form at various time points. […] Concentration of the instant compounds in the perilymph and/or cochlea tissue was above the human NSC EC50 for Atoh1, an indicator that the subject compounds may be efficacious in hair cell regeneration and hearing restoration in human. […] Table 3 below lists the results for the studies using aqueous formulations of crystalline Compound I while Table 4 below lists those for aqueous formulations of crystalline Compound II. The results for aqueous formulations of crystalline Compound I are also graphically shown in FIG. 5A and FIG. 5B while the results for aqueous formulations of crystalline Compound II are graphically shown in FIG. 6A and FIG. 6B.

HES5 = assay: Human neural stem cell assay, Hes5 gene expression (real-time PCR); format: cell-based; conditions: human neural stem cells, 7 point CRC, read-out: hNSC HES5 IC50
Protocol: as §1

[2] = cochlea, Amorphous form (Example 5(b)), read-out: Cochlea Average concentration
[3] = cochlea, Crystalline form (Example 5(a)), read-out: Cochlea Average concentration
[4] = perilymph, Amorphous form (Example 5(b)), read-out: perilymph Average concentration
[5] = perilymph, Crystalline form (Example 5(a)), read-out: Perilymph Average concentration

## C[C@H](OC(=O)NCC(F)(F)C(F)(F)F)C(=O)N[C@@H]1C(=O)Nc2ccccc2-c2ccccc21 [Compound I, (2,2,3,3,3-pentafluoropropyl)-carbamic acid (S)-1-((S)-6-oxo-6,7-dihydro-5H-dibenzo[b,d]azepin-7-ylcarbamoyl) ethyl ester]
Atoh1
  EC50: 625 nM
mice; 16 kHz
  ABR Threshold Improvement: 7 dB
mice; 24 kHz
  ABR Threshold Improvement: 10 dB
mice; 32 kHz
  ABR Threshold Improvement: 8 dB
[1]; dosed as the amorphous form, transtympanic
  concentration in the perilymph and the cochlea compared with the human NSC EC50 for Atoh1: above the human NSC EC50 for Atoh1 at 1 day and 7 days
[1]; dosed as the crystalline form, transtympanic
  concentration in the perilymph and the cochlea compared with the human NSC EC50 for Atoh1: above the NSC EC50 from day 1 to day 28
[1]; [2]
  concentration at 1 day: 211 µM
  concentration at 7 day: 28.4 µM
  concentration at 14 day: 0.04 µM
[1]; [3]
  concentration at 1 day: 69 µM
  concentration at 3 day: 25.6 µM
  concentration at 7 day: 4.1 µM
  concentration at 14 day: 9 µM
  concentration at 21 day: 6.2 µM
  concentration at 28 day: 12.8 µM
[1]; [4]
  concentration at 1 day: 33.3 µM
  concentration at 7 day: 14 µM
  concentration at 14 day: 0 µM
[1]; [5]
  concentration at 1 day: 395 µM
  concentration at 3 day: 568 µM
  concentration at 7 day: 18.9 µM
  concentration at 14 day: 116 µM
  concentration at 21 day: 18.2 µM
  concentration at 28 day: 10.4 µM
[1]; transtympanic, formulations of Example 5(a)-5(d)
  exposure to the inner ear, crystalline formulation versus respective amorphous formulation: longer exposure
HES5
  IC50: 288 nM
